Results on 4 compounds are retold here after ChEMBL document CHEMBL2413063, “Neuroactive diol and acyloin metabolites from cone snail-associated bacteria” (Bioorg Med Chem Lett, 2013).

Assay [1] has as its target Sodium-dependent dopamine transporter (Homo sapiens) (UniProt Q01959). Briefly: Binding affinity to dopamine transporter (unknown origin) at 10 uM by ligand displacement assay.
In assay [2] the target is Sodium-dependent serotonin transporter (Homo sapiens) (UniProt P31645). Briefly: Binding affinity to serotonin transporter (unknown origin) at 10 uM by ligand displacement assay.
Sodium-dependent serotonin transporter (Homo sapiens), sequence (P31645 whole entry, looked up): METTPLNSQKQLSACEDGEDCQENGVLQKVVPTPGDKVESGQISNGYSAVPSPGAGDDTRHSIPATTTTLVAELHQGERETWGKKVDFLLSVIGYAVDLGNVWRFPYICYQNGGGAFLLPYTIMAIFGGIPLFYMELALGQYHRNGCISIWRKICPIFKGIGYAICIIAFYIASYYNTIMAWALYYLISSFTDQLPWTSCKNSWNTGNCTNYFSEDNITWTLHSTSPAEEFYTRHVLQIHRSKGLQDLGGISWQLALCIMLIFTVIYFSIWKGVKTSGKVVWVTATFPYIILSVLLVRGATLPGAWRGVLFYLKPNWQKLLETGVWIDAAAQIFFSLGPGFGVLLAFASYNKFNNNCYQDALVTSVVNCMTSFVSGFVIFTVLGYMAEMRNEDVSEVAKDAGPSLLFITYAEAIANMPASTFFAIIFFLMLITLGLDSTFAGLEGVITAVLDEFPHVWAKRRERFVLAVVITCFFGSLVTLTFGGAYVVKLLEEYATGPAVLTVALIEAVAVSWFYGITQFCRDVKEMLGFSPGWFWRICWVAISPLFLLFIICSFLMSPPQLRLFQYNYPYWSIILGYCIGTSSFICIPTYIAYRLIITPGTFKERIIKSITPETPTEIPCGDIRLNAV
Assay [3] has as its target Sodium-dependent noradrenaline transporter (Homo sapiens, UniProt P23975). The assay can be described thus: Binding affinity to human norepinephrine transporter by ligand displacement assay.
Assay [4] has as its system DRG neuron. The assay can be described thus: Neuronal activity in mouse DRG neurons assessed as amplification of KCl pulse-induced intracellular calcium transient at 90 uM by fluorescence microscopic analysis. It is filed as functional, cell-based. Background: Calcium flux is commonly read through the fluorescence of an indicator in the cells.
Assay [5] relates to DRG neuron. The assay can be described thus: Neuronal activity in mouse DRG neurons assessed as amplification of KCl pulse-induced intracellular calcium transient at 73 uM by fluorescence microscopic analysis. The assay is classed as functional, cell-based.

Calls of active or inactive are those of the source. No cut-off for these calls is given here.

By Ki is commonly meant a measure of affinity in units of concentration, obtained from inhibition or displacement. High values mean lower affinity, low ones higher affinity.

Sodium-dependent dopamine transporter (Homo sapiens), sequence (Q01959 whole entry): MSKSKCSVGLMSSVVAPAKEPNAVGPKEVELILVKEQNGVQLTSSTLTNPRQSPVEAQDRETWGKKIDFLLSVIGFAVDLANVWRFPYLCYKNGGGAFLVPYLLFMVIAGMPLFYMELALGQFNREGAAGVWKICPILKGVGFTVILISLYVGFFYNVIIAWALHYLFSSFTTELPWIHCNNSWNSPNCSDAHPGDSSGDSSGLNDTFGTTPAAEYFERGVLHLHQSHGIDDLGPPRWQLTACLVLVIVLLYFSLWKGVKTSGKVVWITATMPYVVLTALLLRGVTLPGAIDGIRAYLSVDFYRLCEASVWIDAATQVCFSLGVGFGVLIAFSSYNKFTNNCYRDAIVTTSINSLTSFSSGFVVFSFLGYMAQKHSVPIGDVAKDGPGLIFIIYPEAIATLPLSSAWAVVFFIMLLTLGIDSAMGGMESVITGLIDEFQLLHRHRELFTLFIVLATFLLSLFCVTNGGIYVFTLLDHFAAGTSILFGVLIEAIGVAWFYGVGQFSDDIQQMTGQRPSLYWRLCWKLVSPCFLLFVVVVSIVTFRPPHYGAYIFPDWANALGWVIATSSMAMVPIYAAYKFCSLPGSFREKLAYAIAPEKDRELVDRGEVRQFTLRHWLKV
Sodium-dependent noradrenaline transporter, sequence (P23975 whole entry): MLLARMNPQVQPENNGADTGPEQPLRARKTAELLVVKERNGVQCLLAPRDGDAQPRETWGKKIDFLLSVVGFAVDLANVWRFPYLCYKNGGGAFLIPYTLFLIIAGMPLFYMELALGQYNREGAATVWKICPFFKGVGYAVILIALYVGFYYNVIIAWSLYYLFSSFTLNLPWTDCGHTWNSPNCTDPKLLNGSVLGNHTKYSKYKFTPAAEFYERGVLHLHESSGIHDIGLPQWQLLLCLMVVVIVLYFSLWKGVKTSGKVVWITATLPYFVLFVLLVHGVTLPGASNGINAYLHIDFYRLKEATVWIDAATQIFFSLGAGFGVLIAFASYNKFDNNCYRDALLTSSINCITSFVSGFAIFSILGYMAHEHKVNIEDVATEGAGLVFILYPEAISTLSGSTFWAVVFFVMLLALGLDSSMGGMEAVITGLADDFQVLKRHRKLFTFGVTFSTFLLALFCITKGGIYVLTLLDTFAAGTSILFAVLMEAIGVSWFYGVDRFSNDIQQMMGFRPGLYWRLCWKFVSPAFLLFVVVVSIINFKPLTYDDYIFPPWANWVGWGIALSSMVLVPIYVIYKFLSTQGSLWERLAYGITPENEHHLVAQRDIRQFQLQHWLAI

Regarding `O=C(Cc1c[nH]c2ccccc12)C(O)Cc1ccc(O)cc1` (stereo unspecified), the inhibition entry in assay [1] and in assay [2] was “inactive” in each case. This compound also displayed a Ki in assay [3] of 867 nM.

For `CC(C)CC(O)C(=O)Cc1ccc(O)cc1` (stereo unspecified), the result in the assay on DRG neuron [4] was inactive.

Regarding `O=C(Cc1ccc(O)cc1)C(O)Cc1ccc(O)cc1` (stereo unspecified), the outcome in the assay on DRG neuron [5] was Active.

Take `CC(C)CC(=O)C(O)Cc1ccc(O)cc1` (stereo unspecified): in the assay on DRG neuron [4], the outcome was inactive.
